Source: US4696920A, “Certain 2-substituted 1,3-propylidenediphosphonate derivatives, pharmaceutical compositions containing them and their use as antihypertensive agents” (priority 1984, dated 1987)

Tests used:
[1] = system: [^3 H]-PN-200 110 (dihydropyridine) binding site of calcium channel, rat brain membranes; test: [^3 H]-PN-200 110 binding to rat brain membranes; parameters: species or system rat (male Wistar); settings: for Specifically bound [^3 H]-PN-200 110 % of control value: compound concentration 1.0 μM; for Specifically bound [^3 H]-PN-200 110 % of control value / Bound ^3 H at 1.0 μM / Bound ^3 H at 0.1 μM: Table 1b; for Bound ^3 H at 1.0 μM / Bound ^3 H at 0.1 μM: ratio of [^3 H]-PN-200 110 bound at 1.0 and 0.1 μM compound
Description: Diltiazem hydrochloride was a generous gift from Goedecke A. G.
Water insoluble compounds were dissolved in absolute ethanol to give 10 mM or 2.5 mM stock solutions. Suitable dilutions were made in 50 mM Tris-HCl buffer (pH 7.4) containing 150 mM NaCl and 1 mM CaCl2. The ethanol concentration in the final assay never exceeded 0.1%.
The purity of the radioligand and of the various agents tested was monitored by thin layer chromatography on silica gel plates.
The following procedure was adapted from Bellemann et al (Proc. Nat. Acad. Sci. 80, 2356, 1983), and Gould et al (Proc. Nat. Acad. Sci. 79, 3656, 1982).
Adult male Wistar rats weighing 250-300 g were anesthetized with carbon dioxide prior to decapitation. The brain was removed then immersed in ice-cold 0.32M sucrose and washed 2-3 times with fresh solution. Cerebral cortex was minced and homogenized (Potter-Elvehjem homogenizer) in 10 volumes of ice-cold sucrose solution. The homogenate was centrifuged (4° C.) at 1000×g for 15 minutes. The resulting supernatant was then centrifuged at 90000×g (30 minutes) and the pellet was washed twice with 20 ml ice-cold 50 mM Tris-HCl pH 7.4.
The final pellet was resuspended in 50 mM Tris-HCl pH 7.4/150 mM NaCl/1 mM CaCl2 to give a protein concentration of 4 mg/ml.
The membrane suspension was kept on ice until used. Binding assays were performed in subdued light to prevent dihydropyridine breakdown. Membrane protein (400 μg/tube) was incubated in 50 mM Tris-HCl buffer (pH 7.4)/150 mM NaCl/1 mM CaCl2 with the indicated concentrations of radioligand and test compounds or known calcium antagonists, in a total volume of 2 ml. After the indicated time intervals, the reaction was terminated by rapid filtration through Whatman GF/B glass fiber filters (2.4 cm diameter) on a Millipore filter holder. The assay tube was rinsed with 2 ml ice-cold 50 mM Tris-HCl pH (7.4) and the precipitate was further washed with 2×5 ml of the same buffer.
Filters were dried under a heat lamp and were extracted with 10 ml of liquid scintillation cocktail (Toluene/Triton X-100, 2/1 containing 4 g Omnifluor/1) prior to tritium determination at 48% counting efficiency.
Assays were performed in duplicate or triplicate.
Data were expressed as percent specific [^3 H]-Nitrendipine binding relative to the established control value.
Compound activity in the [^3 H]-Nitrendipine binding assay was evaluated by using the following criteria:
1. [^3 H]-Nitrendipine binding at 1.0 μM compound final concentration was either below 95% or above 105% of the control value determined in absence of compound.
2. The ratio obtained by dividing the amount of specifically found [^3 H]-Nitrendipine at 1.0 μM compound final concentration by the value obtained at 0.1 μM test compound, was smaller than 0.9 or greater than 1.1. This ratio is indicative of a dose response relationship within the compound concentration range tested, when the value differs appreciably from 1.0.
Note: In some experiments [^3 H]-PN200 110, a new and commercially available specific dihydropyridine was used instead of [^3 H]-Nitrendipine.

[2] = system: drug receptor sites associated with calcium channels; settings: known calcium antagonists; cited from earlier work
[3] = system: mean blood pressure in rat; test: Acute intravenous hypotensive activity in anesthetized rats; format: in vivo, rat (male Wistar); settings: Rattus norvegicus, iv, read-out: Decrease in mean blood pressure (% pretest)
Description: Male Wistar rats were anesthetized with Pentobarbital (Nembutal, 60 mg/kg i.p.) and heparinized (5 mg/kg i.p.). After tracheotomy the right carotid was cannulated (catheter PE 50); blood pressure was measured with a pressure transducer (Statham P 23 db) and recorded on a polygraph (Beckman).
Animals received 0.5 and 1.5 mg/kg of the test compounds. Less than 100 μl of test compounds dissolved in 0.9% saline were injected in the jugular vein. Highly water insoluble compounds were suspended in 2% Tween-80. Injection of the vehicle alone had no detectable hypotensive effect.
Results presented are expressed as percent decrease in initial mean blood pressure (Mean±SEM).

Row | Structure (SMILES) | Specifically bound [^3 H]-PN-200 110 % of control value [1] | Bound ^3 H at 1.0 μM / Bound ^3 H at 0.1 μM [1] | other results
1 | CCCCOP(=O)(CC(Cc1cc2c(cc1Cl)OCO2)CP(=O)(OCCCC)OCCCC)OCCCC [Compound 99] | 56 % of control value | 0.627 | 
2 | CCCCOP(=O)(CC(CCOc1ccc(-c2ccccc2)cc1)CP(=O)(OCCCC)OCCCC)OCCCC [Compound 100] | 38 % of control value | 0.504 | 
3 | CCCCOP(=O)(CC(Cc1cnc(C)c2c1COC(C)(C)O2)CP(=O)(OCCCC)OCCCC)OCCCC [Compound 101] | 47 % of control value | 0.527 | 
4 | CCCCOP(=O)(CC(Cc1cnc(C)c(O)c1CO)CP(=O)(OCCCC)OCCCC)OCCCC [Compound 102, Tetrabutyl 2-[5-(3-hydroxy-4-hydroxymethyl-2-methyl)pyridylmethyl]1,3-propylidenediphosphonate] | 89 % of control value | 0.925 | 
5 | CCCCOP(=O)(CC(Cc1ccc(CN2CCN(c3ccccc3)CC2)cc1)CP(=O)(OCCCC)OCCCC)OCCCC [Compound 104] | 59 % of control value | 0.687 | 
6 | CCCCOP(=O)(CC(CCCC1(C)OCCO1)CP(=O)(OCCCC)OCCCC)OCCCC [Compound 106] | 42 % of control value | 0.570 | potency in [^3 H]-PN200 110 binding (in words) ([1]; text on Table 1b): as potent as Nifedipine
7 | C=CCCOP(=O)(CC(CCOc1ccccc1)CP(=O)(OCCC=C)OCCC=C)OCCC=C [Compound 110] | 13 % of control value | 0.294 | 
8 | COc1ccc(CCN(C)CCCC(C#N)(c2cc(OC)c(OC)c(OC)c2)C(C)C)cc1OC [Compound D-600] |  |  | effect on [^3 H]-Nitrendipine binding (in words) [2]: reduce [^3 H]-Nitrendipine binding affinity
9 | Fc1ccc(C(c2ccc(F)cc2)N2CCN(C/C=C/c3ccccc3)CC2)cc1 [Flunarizine] |  |  | effect on [^3 H]-Nitrendipine binding (in words) [2]: reduce [^3 H]-Nitrendipine binding affinity
10 | Cc1cccc(C)c1NC(=O)CN1CCN(CCCC(c2ccc(F)cc2)c2ccc(F)cc2)CC1 [Lidoflazine] |  |  | effect on [^3 H]-Nitrendipine binding (in words) [2]: reduce [^3 H]-Nitrendipine binding affinity
11 | C[C@](N)(Cc1ccc(O)c(O)c1)C(=O)O [Methyl Dopa, reference compound] |  |  | inhibition in vivo at 1 mg/kg [3]: 0%
12 | CC(C)NCC(O)COc1cccc2ccccc12 (centres unmarked) [Propranolol, reference compound] |  |  | inhibition in vivo at 1 mg/kg [3]: 11.8 ± 1.1%
